Measured values published in PMC8939339, “Mechanism of Cooperative Degradation of Gum Arabic Arabinogalactan Protein by Bifidobacterium longum Surface Enzymes” (Applied and Environmental Microbiology, 2022).

Target: T1, BlArafE (Bifidobacterium longum, UniProt A0ACD7UMY4)
T1 construct: gene BLLJ_1850; signal peptide (aa 1-26) and C-terminal TM region (aa 1637-1659) removed; printed insert 88 to 4899 (nucleotides); His-tag (printed both as C- and N-terminal; pET23b); E. coli BL21(DE3); 175 kDa
Test: HPAEC-PAD of reaction products
Assay type: biochemical
Details: 50 mM sodium acetate pH 6.0, 37 °C, 16 h; both alpha1,3- and alpha1,4-Araf cleaved

T1 sequence (A0ACD7UMY4 30-1633): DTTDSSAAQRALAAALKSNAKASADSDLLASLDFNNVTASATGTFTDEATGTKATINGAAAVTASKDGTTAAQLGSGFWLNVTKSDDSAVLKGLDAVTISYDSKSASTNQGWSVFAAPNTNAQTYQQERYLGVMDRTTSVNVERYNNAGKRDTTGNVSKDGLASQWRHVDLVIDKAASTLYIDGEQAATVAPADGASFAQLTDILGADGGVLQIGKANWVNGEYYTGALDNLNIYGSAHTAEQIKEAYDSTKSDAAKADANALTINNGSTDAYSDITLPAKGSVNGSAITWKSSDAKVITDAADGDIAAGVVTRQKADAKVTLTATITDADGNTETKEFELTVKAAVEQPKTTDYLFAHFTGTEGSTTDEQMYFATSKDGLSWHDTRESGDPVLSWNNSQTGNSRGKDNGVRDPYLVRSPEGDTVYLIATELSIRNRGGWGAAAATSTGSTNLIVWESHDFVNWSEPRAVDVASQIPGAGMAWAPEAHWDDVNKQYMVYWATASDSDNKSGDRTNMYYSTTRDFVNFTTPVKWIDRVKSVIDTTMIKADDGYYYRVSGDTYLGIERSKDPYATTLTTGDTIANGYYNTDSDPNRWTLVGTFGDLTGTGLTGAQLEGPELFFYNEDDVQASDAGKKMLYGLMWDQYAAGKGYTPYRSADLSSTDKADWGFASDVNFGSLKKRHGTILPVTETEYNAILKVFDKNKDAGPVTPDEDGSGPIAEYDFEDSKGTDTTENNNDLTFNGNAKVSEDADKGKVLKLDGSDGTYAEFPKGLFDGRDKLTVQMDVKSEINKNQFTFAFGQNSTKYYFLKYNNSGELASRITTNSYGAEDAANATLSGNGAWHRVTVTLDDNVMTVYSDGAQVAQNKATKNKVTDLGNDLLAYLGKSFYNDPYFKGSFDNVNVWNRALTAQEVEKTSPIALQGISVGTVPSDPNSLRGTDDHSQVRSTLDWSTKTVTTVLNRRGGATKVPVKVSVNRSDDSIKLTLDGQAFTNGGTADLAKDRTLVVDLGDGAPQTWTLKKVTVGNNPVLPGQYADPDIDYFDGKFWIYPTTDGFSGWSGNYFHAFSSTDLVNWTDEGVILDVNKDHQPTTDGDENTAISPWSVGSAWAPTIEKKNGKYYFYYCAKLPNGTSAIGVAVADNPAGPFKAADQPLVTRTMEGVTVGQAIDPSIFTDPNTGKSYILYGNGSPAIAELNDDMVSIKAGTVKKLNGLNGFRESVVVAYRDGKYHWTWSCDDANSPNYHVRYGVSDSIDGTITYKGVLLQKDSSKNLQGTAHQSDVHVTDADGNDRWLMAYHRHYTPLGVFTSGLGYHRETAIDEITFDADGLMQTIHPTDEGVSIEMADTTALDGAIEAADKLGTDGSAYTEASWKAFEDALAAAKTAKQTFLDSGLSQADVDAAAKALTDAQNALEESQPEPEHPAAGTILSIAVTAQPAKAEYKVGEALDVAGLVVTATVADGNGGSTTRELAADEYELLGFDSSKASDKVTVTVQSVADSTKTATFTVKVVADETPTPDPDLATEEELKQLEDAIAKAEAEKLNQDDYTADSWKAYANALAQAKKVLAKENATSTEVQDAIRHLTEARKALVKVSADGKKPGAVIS

`C[C@@H]1O[C@@H](O[C@H]2[C@H](O)[C@@H](O)[C@H](OC[C@H]3O[C@@H](OC[C@H]4OC(O)[C@H](O)[C@@H](O)[C@H]4O)[C@H](O)[C@@H](OC4O[C@@H](CO)C(O)[C@H]4O)[C@H]3OC3O[C@@H](CO)C(O)[C@H]3O)O[C@@H]2C(=O)O)[C@H](O)[C@H](O)[C@H]1O` (stereo partly shown) [S5-A] was tested, and the “HPAEC-PAD of reaction products” value was “BlArafE cleaved S5-A into S4 and L-arabinose”.
